From US12351571B2, “Substituted quinoxaline compounds as inhibitors of FGFR tyrosine kinases” (ARRAY BIOPHARMA INC., priority 2018, dated 2025)

Columns and labels:
dephosphorylated FGFR1 = dephosphorylated FGFR1 (Homo sapiens (Human), UniProt P11362); assay: FGFR Enzyme Binding Assay (HTRF tracer displacement), FGFR1; conditions: 5 nM dephosphorylated FGFR1, 60 minute incubation at 22° C.; read-out: FGFR1 Enz Binding IC50
Protocol: (§1) The potency of compounds inhibiting human isoforms of FGFR kinase was determined using Life Technologies' Homogeneous Time Resolved Fluorescence (HTRF)-based binding assay technology. An incubation was conducted with either 5 nM dephosphorylated FGFR1 (Array Biopharma, p1702; SEQ ID NO: 1, amino acids 458 to 765, dephosphorylated by co-expression with PTP1b (protein tyrosine phosphatase 1B)), 5 nM dephosphorylated FGFR2 (Life Technologies, Cat. No. PV4106 that had been dephosphorylated with Lambda protein phosphatase (New England Biolabs, cat #P0753)) or 5 nM phosphorylated FGFR3 (Array Biopharma, p1836; SEQ ID NO: 5, amino acids 449 to 759), 50 nM Kinase Tracer 236 (Life Technologies Cat. No. PR9078A), 2 nM Biotin-anti-6HIS (Life Technologies Cat. No. PV6090) and 2 nM Europium-Streptavidin (Life Technologies Cat. No. PV6025) along with test compound in a buffer consisting of 50 mM HEPES ((4-(2-hydroxyethyl)-1-piperazineethanesulfonic acid, pH 7.5), 5 mM MgCl2, 0.005% Triton X-100, 1 mM DTT, 1 mM NaVO4 and 2% DMSO in a final volume of 12 μL Compounds were typically prepared as a 3-fold or 4-fold serial dilution in DMSO and added to the assay to give the appropriate final concentration. After a 60 minute incubation at 22° C., the extent of tracer displacement was determined using a PerkinElmer EnVision multimode plate reader via HTRF dual wavelength detection, and the percent of control (POC) was calculated using a ratiometric emission factor. One hundred POC was determined using no test compound, and 0 POC was determined in the presence of 1 μM of an appropriate control inhibitor. A 4-parameter logistic curve was fit to the POC values as a function of the concentration of compound, and the IC50 value was the point where the best-fit curve crossed 50 POC.

phosphorylated FGFR3 = phosphorylated FGFR3 (Homo sapiens (Human), UniProt P22607); assay: FGFR Enzyme Binding Assay (HTRF tracer displacement), FGFR3; conditions: 5 nM phosphorylated FGFR3, 60 minute incubation at 22° C.; read-out: FGFR3 Enz Binding IC50
phosphorylated FGFR3, sequence (P22607 449-759): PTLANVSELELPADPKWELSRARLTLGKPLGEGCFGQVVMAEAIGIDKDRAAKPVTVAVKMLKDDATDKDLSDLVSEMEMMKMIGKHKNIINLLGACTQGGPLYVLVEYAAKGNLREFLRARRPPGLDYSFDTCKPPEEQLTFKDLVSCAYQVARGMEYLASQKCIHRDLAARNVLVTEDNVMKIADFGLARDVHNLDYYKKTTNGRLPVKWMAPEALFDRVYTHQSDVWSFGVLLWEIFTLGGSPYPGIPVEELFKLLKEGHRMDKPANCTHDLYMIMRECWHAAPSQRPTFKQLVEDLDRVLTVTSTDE
Protocol: as §1

[1] = biological target: recombinant human FGFR2 cytoplasmic domain (Homo sapiens (Human), UniProt P21802); assay: FGFR Enzyme Activity Assay (LanthaScreen TR-FRET), FGFR2; type: biochemical; conditions: 15 μM ATP, 20 minute incubation; read-out: FGFR2 Enz FRET IC50
recombinant human FGFR2 cytoplasmic domain, sequence (P21802 402-821): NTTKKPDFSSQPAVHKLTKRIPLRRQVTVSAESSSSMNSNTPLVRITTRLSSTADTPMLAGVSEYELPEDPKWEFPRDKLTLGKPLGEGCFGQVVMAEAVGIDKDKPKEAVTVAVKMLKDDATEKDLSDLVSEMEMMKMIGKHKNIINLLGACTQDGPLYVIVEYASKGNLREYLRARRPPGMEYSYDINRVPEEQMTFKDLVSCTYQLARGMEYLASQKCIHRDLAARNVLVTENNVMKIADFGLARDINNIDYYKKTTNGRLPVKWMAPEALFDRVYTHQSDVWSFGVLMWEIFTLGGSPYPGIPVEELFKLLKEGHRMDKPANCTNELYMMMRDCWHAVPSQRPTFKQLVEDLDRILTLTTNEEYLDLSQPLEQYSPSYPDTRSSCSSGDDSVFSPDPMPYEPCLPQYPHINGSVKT
Protocol: FGFR2 kinase activity was measured by the Invitrogen LanthaScreen™ Assay technology which directly measures the amount of substrate phosphorylation by TR-FRET using a flourescently-labeled peptide and Europium-labeled antibody. Briefly, 200 pM His-tagged recombinant human FGFR2 cytoplasmic domain (amino acids 403-822) (Life Technologies Cat. No. PR5332A) was incubated with 100 nM Alexa Fluor® 647-Poly-GT Peptide Substrate (Life Technologies Cat. No. PV5836) and 15 μM ATP along with test compound in a buffer consisting of 250 mM HEPES, 25 mM MgCl2, 0.05% TritonX-100, pH 7.5, and 2% DMSO. Compounds were typically prepared in a threefold serial dilution in DMSO and added to the assay to give the appropriate final concentration. After a 20 minute incubation at 22° C., an equal volume of 2 nM LanthaScreen® Eu-PY20 Antibody (Life Technologies Cat. No. PV5691) and 10 mM EDTA were added to quench the kinase reaction and start the detection reaction. After an additional 60 minute incubation at 22° C., the reaction was measured using a PerkinElmer EnVision multimode plate reader via TR-FRET dual wavelength detection, and the percent of control (POC) calculated using a ratiometric emission factor. 100 POC was determined using no test compounds and 0 POC was determined using no enzyme. The POC values were fit to a 4-parameter logistic curve as a function of the concentration of the compound, and the IC50 value is the point where the curve crosses 50 POC.

human wild type FGFR1 = human wild type FGFR1 (Homo sapiens (Human), UniProt P11362); assay: FGFR1 pERK Cell Assay; type: cell-based; conditions: HEK-293 cells, 1 hour compound, 100 ng/ml human FGF-acidic; maximum concentration 5 μM
human wild type FGFR1, sequence (P11362 22-822): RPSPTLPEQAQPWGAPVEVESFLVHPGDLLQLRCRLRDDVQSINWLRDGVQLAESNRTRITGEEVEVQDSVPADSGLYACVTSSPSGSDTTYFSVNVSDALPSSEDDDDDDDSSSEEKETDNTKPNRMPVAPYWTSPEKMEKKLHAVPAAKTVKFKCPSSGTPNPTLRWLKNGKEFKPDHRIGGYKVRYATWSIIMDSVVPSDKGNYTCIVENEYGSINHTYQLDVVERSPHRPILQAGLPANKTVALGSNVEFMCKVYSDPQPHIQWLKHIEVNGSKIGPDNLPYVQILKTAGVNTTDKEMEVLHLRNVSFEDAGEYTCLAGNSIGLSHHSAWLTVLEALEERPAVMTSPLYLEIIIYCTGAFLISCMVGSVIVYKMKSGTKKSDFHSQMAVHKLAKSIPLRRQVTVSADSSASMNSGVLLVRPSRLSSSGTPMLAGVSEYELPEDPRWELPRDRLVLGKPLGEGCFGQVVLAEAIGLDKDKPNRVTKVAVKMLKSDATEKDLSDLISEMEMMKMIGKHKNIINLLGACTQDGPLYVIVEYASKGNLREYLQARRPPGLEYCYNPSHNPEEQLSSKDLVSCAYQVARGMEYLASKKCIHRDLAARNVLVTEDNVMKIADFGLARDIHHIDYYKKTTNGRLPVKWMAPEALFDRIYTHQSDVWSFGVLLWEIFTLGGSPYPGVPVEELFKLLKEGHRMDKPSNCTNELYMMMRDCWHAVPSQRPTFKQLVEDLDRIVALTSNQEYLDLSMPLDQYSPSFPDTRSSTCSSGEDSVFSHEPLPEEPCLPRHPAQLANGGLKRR
Protocol: HEK-293 cells transfected with doxycycline(dox)-inducible human wild type FGFR1 (SEQ ID NO: 1) were plated in a collagen or poly-D-lysine coated 96 well flat bottom plates at 4×10^5 cells/well in complete Dulbecco's Modified Eagle Medium (DMEM) containing 10% FBS and 1 μg/ml doxycycline and allowed to attach for 24 h at 37° C., 5% CO2. Cells were treated with compound using 1:3 serial dilutions with a maximum final concentration of 5 μM. Compound was incubated on cells for 1 hour at 37° C., 5% CO2. Cells were then stimulated with a final concentration of 100 ng/ml human FGF-acidic (R&D Systems Cat number 232-FA/CF) for 5 minutes at 37° C., 5% CO2. Medium was removed, and cells were lysed with lysis buffer containing phosphatase and protease inhibitors. Phospho ERK1/2 was measured using the Meso Scale Discovery sandwich assay (Meso Scale Discovery cat. no. K151DWD). The assay captures phospho ERK1/2 and detects with a sulfo-tagged total ERK1/2 antibody. The chemiluminescent signal was read on the Sector Imager Plate reader. 100 POC was determined using no test compound and 0 POC was determined using a control compound. The POC values were fit to a 4-parameter logistic curve as a function of the concentration of the compound, and the IC50 value is the point where the curve crosses 50 POC.

dephosphorylated FGFR1, sequence (P11362 458-765): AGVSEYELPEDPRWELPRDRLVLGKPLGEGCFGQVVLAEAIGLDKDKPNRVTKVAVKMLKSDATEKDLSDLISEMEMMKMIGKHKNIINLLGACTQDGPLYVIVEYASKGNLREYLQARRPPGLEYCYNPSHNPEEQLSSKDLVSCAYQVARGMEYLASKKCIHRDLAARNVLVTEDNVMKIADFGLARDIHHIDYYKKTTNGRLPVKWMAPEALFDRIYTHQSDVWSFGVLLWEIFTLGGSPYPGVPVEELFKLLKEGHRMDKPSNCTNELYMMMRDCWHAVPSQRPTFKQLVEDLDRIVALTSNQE

For `COc1cc(Nc2ccc3ncc(-c4cnc(N5CCN(C(=O)C6(F)CN(C(=O)/C=C/CN(C)C)C6)CC5)cc4C)nc3c2)cc(OC)c1` [Example 14, (E)-1-(3-(4-(5-(7-((3,5-dimethoxyphenyl)amino)-quinoxalin-2-yl)-4-methylpyridin-2-yl)-piperazine-1-carbonyl)-3-fluoroazetidin-1-yl)-4-(dimethylamino)but-2-en-1-one], the IC50 (dephosphorylated FGFR1) was 4140 nM, the IC50 (phosphorylated FGFR3) was 123 nM and the IC50 [1] was 666 nM. For the same compound, the IC50 (human wild type FGFR1) was 1940 nM.

`C=CC(=O)N1CC(F)(C(=O)N2CCN(c3cc(C)c(-c4cnc5ccc(Nc6cc(OC)cc(OC)c6)cc5n4)cn3)CC2)C1` [Example 15, 1-(3-(4-(5-(7-((3,5-dimethoxyphenyl)amino)-quinoxalin-2-yl)-4-methylpyridin-2-yl)-piperazine-1-carbonyl)-3-fluoroazetidin-1-yl)prop-2-en-1-one] showed an IC50 (dephosphorylated FGFR1) of 2370 nM, an IC50 (phosphorylated FGFR3) of 116 nM and an IC50 [1] of 5000 nM. For the same compound, the IC50 (human wild type FGFR1) was at least 5000 nM.

With `C=CC(=O)N1CC(C(=O)N2CC(n3cc(-c4cnc5ccc(Nc6cc(OC)cc(OC)c6)cc5n4)cn3)C2)C1` [Example 16, 1-(3-(3-(4-(7-((3,5-dimethoxyphenyl)amino)-quinoxalin-2-yl)-1H-pyrazol-1-yl)azetidine-1-carbonyl)azetidin-1-yl)-prop-2-en-1-one] the IC50 (dephosphorylated FGFR1) was 30 nM, the IC50 (phosphorylated FGFR3) was 5 nM and the IC50 [1] was 27 nM. It also gave an IC50 (human wild type FGFR1) of 3000 nM.

For `COc1cc(Nc2ccc3ncc(-c4cnn(C5CCN(C(=O)C6(F)CN(C(=O)/C=C/CN(C)C)C6)CC5)c4C)nc3c2)cc(OC)c1` [Example 17, (E)-1-(3-(4-(4-(7-((3,5-dimethoxyphenyl)amino)-quinoxalin-2-yl)-5-methyl-1H-pyrazol-1-yl)piperi-dine-1-carbonyl)-3-fluoroazetidin-1-yl)-4-(dimethylamino)but-2-en-1-one], the IC50 (dephosphorylated FGFR1) was 102 nM, the IC50 (phosphorylated FGFR3) was 5 nM and the IC50 [1] was 118 nM. The IC50 (human wild type FGFR1) was 423 nM.

`C=CC(=O)N1CC(C(=O)N2CCC(n3ncc(-c4cnc5ccc(Nc6cc(OC)cc(OC)c6)cc5n4)c3C)CC2)C1` [Example 18, 1-(3-(4-(4-(7-((3,5-dimethoxyphenyl)amino)-quinoxalin-2-yl)-5-methyl-1H-pyrazol-1-yl)piperi-dine-1-carbonyl)azetidin-1-yl)prop-2-en-1-one] was tested, and the IC50 (dephosphorylated FGFR1) was 244 nM, the IC50 (phosphorylated FGFR3) was 18 nM and the IC50 [1] was 555 nM. The IC50 (human wild type FGFR1) was 3660 nM.

`COc1cc(Nc2ccc3ncc(-c4cnn([C@@H]5CCN(C(=O)C6(F)CN(C(=O)/C=C/CN(C)C)C6)C5)c4)nc3c2)cc(OC)c1` [Example 19, (R,E)-1-(3-(3-(4-(7-((3,5-dimethoxyphenyl)amino)-quinoxalin-2-yl)-1H-pyrazol-1-yl)pyrrolidine-1-carbonyl)-3-fluoro-azetidin-1-yl)-4-(dimethyl-amino)but-2-en-1-one] showed an IC50 (dephosphorylated FGFR1) of 55 nM, an IC50 (phosphorylated FGFR3) of 4 nM and an IC50 [1] of 166 nM. It also gave an IC50 (human wild type FGFR1) of 1280 nM.

Work on `COc1cc(Nc2ccc3ncc(-c4cnn([C@@H]5CCN(C(=O)C6CN(C(=O)/C=C/CN(C)C)C6)C5)c4)nc3c2)cc(OC)c1` [Example 20, (R,E)-1-(3-(3-(4-(7-((3,5-dimethoxyphenyl)amino)-quinoxalin-2-yl)-1H-pyrazol-1-yl)pyrrolidine-1-carbonyl)azetidin-1-yl)-4-(dimethylamino)but-2-en-1-one] yielded an IC50 (dephosphorylated FGFR1) of 53 nM, an IC50 (phosphorylated FGFR3) of 5 nM and an IC50 [1] of 107 nM. The IC50 (human wild type FGFR1) was at least 5000 nM.

For `C=CC(=O)N1CC(C(=O)N2CC[C@@H](n3cc(-c4cnc5ccc(Nc6cc(OC)cc(OC)c6)cc5n4)cn3)C2)C1` [Example 21, (R)-1-(3-(3-(4-(7-((3,5-dimethoxyphenyl)amino)-quinoxalin-2-yl)-1H-pyrazol-1-yl)pyrrolidine-1-carbonyl)azetidin-1-yl)prop-2-en-1-one], the IC50 (dephosphorylated FGFR1) was 38 nM, the IC50 (phosphorylated FGFR3) was 5 nM and the IC50 [1] was 187 nM. The IC50 (human wild type FGFR1) was 1890 nM.

With `COc1cc(Nc2ccc3ncc(-c4cn(C5CCN(C(=O)C6(F)CN(C(=O)/C=C/CN(C)C)C6)CC5)nc4C)nc3c2)cc(OC)c1` [Example 22, (E)-1-(3-(4-(4-(7-((3,5-dimethoxyphenyl)amino)-quinoxalin-2-yl)-3-methyl-1H-pyrazol-1-yl)-piperidine-1-carbonyl)-3-fluoroazetidin-1-yl)-4-(dimethylamino)but-2-en-1-one] the IC50 (dephosphorylated FGFR1) was 131 nM, the IC50 (phosphorylated FGFR3) was 4 nM and the IC50 [1] was 84 nM. For the same compound, the IC50 (human wild type FGFR1) was 898 nM.

`COc1cc(Nc2ccc3ncc(-c4c(C)nn(C5CCN(C(=O)C6(F)CN(C(=O)/C=C/CN(C)C)C6)CC5)c4C)nc3c2)cc(OC)c1` [Example 23, (E)-1-(3-(4-(4-(7-((3,5-dimethoxyphenyl)amino)-quinoxalin-2-yl)-3,5-dimethyl-1H-pyrazol-1-yl)piperidine-1-carbonyl)-3-fluoroazetidin-1-yl)-4-(dimethylamino)but-2-en-1-one] showed an IC50 (dephosphorylated FGFR1) of 842 nM, an IC50 (phosphorylated FGFR3) of 13 nM and an IC50 [1] of 3460 nM. The IC50 (human wild type FGFR1) was 1940 nM.

`C=CC(=O)N1CC(OC)(C(=O)N2CCC(n3cc(-c4cnc5ccc(Nc6cc(OC)cc(OC)c6)cc5n4)cn3)CC2)C1` [Example 24, 1-(3-(4-(4-(7-((3,5-dimethoxyphenyl)amino)-quinoxalin-2-yl)-1H-pyrazol-1-yl)piperidine-1-carbonyl)-3-methoxy-azetidin-1-yl)prop-2-en-1-one] showed an IC50 (dephosphorylated FGFR1) of 53 nM, an IC50 (phosphorylated FGFR3) of 9 nM and an IC50 [1] of 211 nM. It also gave an IC50 (human wild type FGFR1) of 225 nM.

In the case of `C=CC(=O)N1CC(O)(C(=O)N2CCC(n3cc(-c4cnc5ccc(Nc6cc(OC)cc(OC)c6)cc5n4)cn3)CC2)C1` [Example 26, 1-(3-(4-(4-(7-((3,5-dimethoxyphenyl)amino)quinoxalin-2-yl)-1H-pyrazol-1-yl)piperidine-1-carbonyl)-3-hydroxyazetidin-1-yl)prop-2-en-1-one], the IC50 (dephosphorylated FGFR1) is reported as 37 nM, the IC50 (phosphorylated FGFR3) is reported as 6 nM and the IC50 [1] is reported as 121 nM. For the same compound, the IC50 (human wild type FGFR1) was 1650 nM.

Compound `C=CC(=O)N1CC(O)(C(=O)N2CCC(n3cc(-c4cnc5ccc(N(C)c6cc(OC)cc(OC)c6)cc5n4)cn3)CC2)C1` [Example 27, 1-(3-(4-(4-(7-((3,5-dimethoxyphenyl)(methyl)amino)quinoxalin-2-yl)-1H-pyrazol-1-yl)piperidine-1-carbonyl)-3-hydroxyazetidin-1-yl)prop-2-en-1-one] has an IC50 (dephosphorylated FGFR1) of 13 nM, an IC50 (phosphorylated FGFR3) of 6 nM and an IC50 [1] of 12 nM. The IC50 (human wild type FGFR1) was 128 nM.
